From patent US20120121692A1, “COMPOUNDS AND COMPOSITIONS COMPRISING CDK INHIBITORS AND METHODS FOR TREATING CANCER” (SHANDONG UNIVERSITY, priority 2009, published 2012)
pIC50: −log10 of the molar value. Like-named read-outs stand apart in the source and are kept apart here.

Experiments:
HCT116 cells = assay: MTT cytotoxicity screening, human colon cancer cell line HCT116; format: cell-based
Source text: Human colon cancer cell line HCT116 can be used for the preliminary cytotoxicity screening of the disclosed compounds as disclosed by Mosmann, T., “Rapid colorimetric assay for cellular growth and survival: application to proliferation and cytotoxicity assays.” J. Immunol. Methods, (1983) 65(1-2): p. 55-63 referred to herein further as the “MTT test” which is incorporated herein by reference in its entirety.
The disclosure of Mosmann recites the following. “MTT 93-(4,5-dimethylthirazol-2-yl)-2,5-diphenyl tetrazolium bromide; Sigman catalog no. M2128) was dissolved in PBS at 5 mg/ml and filtered to sterilize and remove a small amount of insoluble residue present in some batches of MTT. At the times indicated below, stock MTT solution (10 ml per 100 ml) was added to all wells of an assay, and plates were incubated at 37° C. for 4 h. Acid-siopropanol (100 ml of 0.04 N HCl in isopropanol) was added to all wells and mixed thoroughly to dissolve the dark blue crystals. After a few minutes at room temperature to ensure that all crystals were dissolved, the plates were read o a Dynatech MR580Microelisa reader, using a test wavelength of 570 nm, a reference wavelength of 630 nm, and a calibration setting of 1.99 (or 1.0 if the samples were strongly colored). Plates were normally read within 1 h of adding the isopropanol.
“Our final procedure was to add 0.01 ml MTT (5 mg/ml in phosphate-buffered saline) to 0.1 ml cells in growth medium. After 4 h at 37° C. for MTT cleavage, the formazan product was solublilized by the addition of 0.1 ml 0.04 N HCl in isopropanol. Optical density was measured on a Dynatech MR 580 plate reader, using a reference wavelength of 630 nm and a test wavelength of 570 nm.” 3-(4,5-Dimethylthiazol-2-yl)-2,5-diphenyltetrazolium bromide, a tetrazole, can pass through cellular membrane to enter into cells. This tetrazole may be reduced to the purple formazan in the mitochondria of living cells, which can diffuse out to form crystals. This crystal can be dissolved in the dimethyl sulfoxide to form a colored solution. The absorbance of this colored solution can be quantified by measuring at certain wavelength (490 nm) using a spectrophotometer. The quantity of the formazan crystal is proportional to the number of living cells.
As used herein, cells were cultured in McCoy's 5A medium supplemented with 10% heat-inactivated Fetal Bovine Serum (FBS) and 5% Penicillin/Streptomycin solution. McCoy's 5A, 1× (Iwakata & Grace modified) medium with L-Glutamine, DPBS, 1× w/o Ca and Mg, Penicillin/Streptomycin solution, Trypsin EDTA, 1× and PBS, 1× w/o Ca and Mg were purchased from Mediatech, Inc. (USA). FBS was purchased from Hyclone (USA).
The cytotoxicity of the compounds was estimated using the MTT assay. A 96-well plate was seeded with 100 μl medium containing HCT116 cells in suspension at a density of 2.5×10^4 cells/ml. After 24 hours of incubation, the cells were treated with the compounds, which were dissolved in DMSO (dimethyl sulfoxide) as stock solutions and diluted to final concentrations of 100 μM, 50 μM, 25 μM, 12.5 μM, 6.25 μM & 1 μM (for compounds tested in the micromolar concentrations) and 10 μM, 1 μM, 500 nM, 250 nM, 125 nM & 62.5 nM (for compounds tested in the nanomolar concentration range) using medium containing 0.1% DMSO. The final concentration of DMSO in the culture medium was maintained at 0.1%-0.001% (v/v). After 48 hrs incubation in the presence of test compounds, the spent medium was removed and the wells were washed twice with 100 μL of PBS solution. 100 μL of fresh medium and 10 μL of MTT (5 mg/ml in PBS) was added to the wells and incubated at 37° C. in dark for 4 hrs. The formazan product was dissolved by adding 100 μL of 100% DMSO after removing the medium from each well and was stabilized by adding 12.5 μL of Sorensen's glycine buffer to each well. […]

[1] = Homo sapiens, HCT-116, 48 hrs incubation, absorbance 490 nm, primary screening, read-out: IC50
[2] = Homo sapiens, HCT-116, further evaluated after secondary screening (Table VIII), read-out: IC50 value

COc1cccc(/C=C/C(=O)c2c(OC)cc(OC)c(CN3CCCCC3)c2O)c1 [Compound C3, (E)-1-(2-hydroxy-4,6-dimethoxy-3-(piperidin-1-ylmethyl)phenyl)-3-(3-methoxyphenyl)-2-propylene-1-one]
pIC50 (HCT116 cells; [1]): 5.55

COc1ccc(/C=C/C(=O)c2c(OC)cc(OC)c(C3=CCN(C)CC3)c2O)cc1 [Compound A10, (E)-1-(2-hydroxy-4,6-dimethoxy-3-(1-methyl-1,2,3,6-tetrahydropyridine-4-yl)phenyl)-3-(4-methoxyphenyl)-2-propylene-1-one]
pIC50 (HCT116 cells; [1]): 4.93 | melting point: 177 to 178 °C

COc1cccc(/C=C/C(=O)c2c(OC)cc(OC)c(C3=CCNCC3)c2O)c1 [Compound B6, (E)-1-(2-hydroxy-4,6-dimethoxy-3-(1,2,3,6-tetrahydropyridine-4-yl)phenyl)-3-(3-methoxyphenyl)-2-propylene-1-one]
pIC50 (HCT116 cells; [1]): 5.51 | melting point: 99 to 100 °C

COc1cccc(/C=C/C(=O)c2c(OC)cc(OC)c(C3=CCN(C)CC3)c2O)c1 [Compound A6, (E)-1-(2-hydroxy-4,6-dimethoxy-3-(1-methyl-1,2,3,6-tetrahydropyridine-4-yl)phenyl)-3-(3-methoxyphenyl)-2-propylene-1-one]
pIC50 (HCT116 cells; [1]): 5.17 | melting point: 140 to 141 °C

COc1cc(OC)c(C2=CCN(C)CC2)c(O)c1C(=O)/C=C/c1ccc(N(C)C)cc1 [Compound A14, (E)-3-(4-dimethylaminophenyl)-1-(2-hydroxy-4,6-dimethoxy-3-(1-methyl-1,2,3,6-tetrahydropyridine-4-yl)phenyl)-2-propylene-1-one]
pIC50 (HCT116 cells; [1]): 4.52 | melting point: 176 to 177 °C

COc1cc(OC)c(C2=CCNCC2)c(O)c1C(=O)/C=C/c1ccccc1 [Compound B1, 1-(2-hydroxy-4,6-dimethoxy-3-(1,2,3,6-tetrahydropyridine-4-yl)phenyl)-3-phenyl-2-propylene-1-one]
pIC50 (HCT116 cells; [1]): 5.08 | pIC50 (HCT116 cells; [2]): ~7.00 | melting point: 118 to 120 °C

COc1cc(OC)c(C2=CCN(C)CC2)c(O)c1C(=O)/C=C/c1ccc(O)cc1 [Compound A11, (E)-1-(2-hydroxy-4,6-dimethoxy-3-(1-methyl-1,2,3,6-tetrahydropyridine-4-yl)phenyl)-3-(4-hydroxyphenyl)-2-propylene-1-one]
pIC50 (HCT116 cells; [1]): 4.05 | melting point: 98 to 100 °C

COc1cc(OC)c(C(=O)/C=C/c2ccc(Cl)cc2)c(O)c1CN1CCOCC1 [Compound D3, (E)-3-(4-chlorophenyl)-1-(2-hydroxy-4,6-dimethoxy-3-(morpholin-4-ylmethyl)phenyl)-2-propylene-1-one]
pIC50 (HCT116 cells; [1]): 5.16 | melting point: 140 to 141 °C

COc1cc(OC)c(C(=O)/C=C/c2ccc(Br)cc2)c(O)c1CN1CCCCC1 [Compound C6]
melting point: 99 to 100 °C

COc1cc(OC)c(C2=CCN(C)CC2)c(O)c1C(=O)/C=C/c1ccccc1[N+](=O)[O-] [Compound A3, (E)-1-(2-hydroxy-4,6-dimethoxy-3-(1-methyl-1,2,3,6-tetrahydropyridine-4-yl)phenyl)-3-(2-nitrophenyl)-2-propylene-1-one]
pIC50 (HCT116 cells; [1]): 4.75 | melting point: 149 to 151 °C

COc1cc(OC)c(C(=O)/C=C/c2ccc(Br)cc2)c(O)c1CN1CCOCC1 [Compound D4, (E)-3-(4-bromophenyl)-1-(2-hydroxy-4,6-dimethoxy-3-(morpholin-4-ylmethyl)phenyl)-2-propylene-1-one]
pIC50 (HCT116 cells; [1]): 5.26 | pIC50 (HCT116 cells; [2]): ~5.52 | melting point: 144 to 145 °C

COc1cc(OC)c(C2=CCNCC2)c(O)c1C(=O)/C=C/c1ccc(C)cc1 [Compound B9, (E)-1-(2-hydroxy-4,6-dimethoxy-3-(1,2,3,6-tetrahydropyridine-4-yl)phenyl)-3-(4-methylphenyl)-2-propylene-1-one]
pIC50 (HCT116 cells; [1]): 5.40 | melting point: 98 to 100 °C

COc1cc(OC)c(C(=O)/C=C/c2cccc(Cl)c2)c(O)c1CN1CCCCC1 [Compound C4]
pIC50 (HCT116 cells; [1]): 5.41 | melting point: 134 to 135 °C

COc1cc(OC)c(C(=O)/C=C/c2cccc(Cl)c2)c(O)c1CN1CCOCC1 [Compound D5, (E)-3-(3-chlorophenyl)-1-(2-hydroxy-4,6-dimethoxy-3-(morpholinemethyl)phenyl)-2-propylene-1-one]
pIC50 (HCT116 cells; [1]): 5.55 | melting point: 135 to 136 °C

COc1cc(OC)c(C(=O)/C=C/c2ccc(C)cc2)c(O)c1CN1CCCCC1 [Compound C1, (E)-1-(2-hydroxy-4,6-dimethoxy-3-(piperidin-1-ylmethyl)phenyl)-3-(4-methylphenyl)-2-propylene-1-one]
pIC50 (HCT116 cells; [1]): 5.25

CN1CC=C(c2c(O)cc(O)c3c(=O)cc(-c4ccccc4)oc23)CC1 [Compound G1, 5,7-hydroxy-8-(1-methyl-1,2,3,6-tetrahydropyridin-4-yl)-2-phenyl-4H-chromen-4-one]
pIC50 (HCT116 cells; [1]): 5.42

Cc1cccc(-c2cc(=O)c3c(O)cc(O)c(C4=CCN(C)CC4)c3o2)c1 [Compound G2, 5,7-hydroxy-8-(1-methyl-1,2,3,6-tetrahydropyridin-4-yl)-2-(3-methylphenyl)-4H-chromen-4-one]
pIC50 (HCT116 cells; [1]): 5.44 | melting point: 179 to 180 °C

COc1cc(OC)c(C2=CCNCC2)c(O)c1C(=O)/C=C/c1cccc([N+](=O)[O-])c1 [Compound B8, (E)-1-(2-hydroxy-4,6-dimethoxy-3-(1,2,3,6-tetrahydropyridine-4-yl)phenyl)-3-(3-nitrophenyl)-2-propylene-1-one]
pIC50 (HCT116 cells; [1]): 5.39 | melting point: 199 to 200 °C

COc1cc(OC)c(C(=O)/C=C/c2cccc(C)c2)c(O)c1CN1CCOCC1 [Compound D7, (E)-3-(3-methylphenyl)-1-(2-hydroxy-4,6-dimethoxy-3-(morpholinemethyl)-phenyl)-2-propylene-1-one]
melting point: 158 to 159 °C

COc1cc(OC)c2c(=O)cc(-c3ccccc3)oc2c1C1=CCN(C)CC1 [Compound F1, 5,7-Dimethoxy-8-(1-methyl-1,2,3,6-tetrahydropyridin-4-yl)-2-phenyl-4H-chromen-4-one]
pIC50 (HCT116 cells; [1]): 4.68

COc1ccc(/C=C/C(=O)c2c(OC)cc(OC)c(CN3CCOCC3)c2O)cc1 [Compound D2, (E)-1-(2-hydroxy-4,6-dimethoxy-3-(morpholin-4-ylmethyl)phenyl)-3-(4-methoxyphenyl)-2-propylene-1-one]
pIC50 (HCT116 cells; [1]): 4.67 | melting point: 159 to 160 °C

CN1CC[C@H](c2c(O)cc(O)c3c(=O)cc(-c4ccccc4Cl)oc23)[C@H](O)C1 [flavopiridol, reference compound]
pIC50 (HCT116 cells; [2]): ~6.89

COc1cc(OC)c(C(=O)/C=C/c2cccc(C)c2)c(O)c1CN1CCCCC1 [Compound C5]
melting point: 113 to 114 °C

COc1cc(OC)c(C(=O)/C=C/c2cc(OC)c(OC)c(OC)c2)c(O)c1CN1CCOCC1 [Compound D8, (E)-3-(3,4,5-trimethoxyphenyl)-1-(2-hydroxy-4,6-dimethoxy-3-(morpholinemethyl)-phenyl)-2-propylene-1-one]
melting point: 169 to 170 °C

COc1cc(OC)c(C2=CCN(C)CC2)c(O)c1C(=O)/C=C/c1ccccc1 [Compound A1, (E)-1-(2-Hydroxy-4,6-dimethoxy-3-(1-methyl-1,2,3,6-tetrahydropyridine-4-yl)phenyl)-3-phenylprop-2-en-1-one]
pIC50 (HCT116 cells; [1]): 5.00

5,7-dimethoxy-8-(1-methyl-1,2,3,6-tetrahydropyridin-4-yl)-2-(3-methylphenyl)-4H-chromen-4-one [Compound F2]
pIC50 (HCT116 cells; 48 hrs incubation, absorbance 490 nm, primary screening, read-out: IC50): 4.69
